1 molecule from publication PMC6688628, “N-Substituted Pyrrole Derivative 12m Inhibits HIV-1 Entry by Targeting Gp41 of HIV-1 Envelope Glycoprotein” (Frontiers in Pharmacology, 2019) can be followed below.

In general, EC50 refers to the concentration needed to bring the measured effect to its halfway point. One may read the CC50 as the concentration that lowers cell viability or growth by half. Lower therefore signals greater toxicity to the cells. Broadly, the IC50 is the concentration that inhibits the measured activity by half. Low readings indicate greater potency in that assay, high ones weaker potency in that assay. By IC90 is commonly meant the concentration needed for an effect of 90%. Low readings indicate an effect from little substance, high ones a need for much substance.

Series [1] relates to T20-resistant HIV-1 strains. Description: Anti-HIV-1 activity, panel of T20-resistant mutants. It counts as cell-based. Particulars: Human immunodeficiency virus 1; range over T20-resistant mutants; read-out: EC50 values against a series of T20-resistant mutants. As for the experimental part: The HIV-1 replication-inhibiting activity of compounds was determined as previously described ([Li et al., 2013]). Briefly, 1 × 10^4 TZM-bl or MT-2 cells were infected with primary HIV-1 strains or T20-resistant HIV-1 strains (100 TCID50) in 200 µl of RPMI-1640 medium containing 10% FBS in the presence or absence of compounds at graded concentrations for 12 h. The culture medium was replaced with fresh medium without the compounds. After culture for an additional 48 h, supernatants or cells were collected from each well. For the primary HIV-1 strains, the cells were treated using a luciferase kit. Briefly, the cells were lysed with the lysis reagent and were transferred into a 96-well flat-bottom luminometer plate after three washes with phosphate-buffered saline (PBS) (Costar Corning Inc., Corning, NY), followed by addition of the luciferase substrate included in the luciferase kit (Promega Corp., Madison, WI). The luciferase activity was measured immediately by an Ultra 384 microplate reader (Tecan, Research Triangle Park, NC). T20 was used as a positive control. For the T20-resistant HIV-1 strains, 100 µl of culture supernatant was mixed with 100 µl of 5% Triton X-100. […] Absorbance at 450 nm was recorded in an ELISA reader (Ultra 384, Tecan). EC50 values were calculated using the computer program CalcuSyn ([Chou and Talalay, 1984]).

Another series is described as follows: XTT assay, TZM-bl cells. The format is cell-based. Particulars: human. How it is done:
The in vitro cell viability of NSPD-12m on HIV-1 target cells (U87-CD4-CXCR4, U87-CD4-CCR5, TZM-bl, and MT-2 cells) and HIV effector cells (CHO-WT cells) was analyzed by an XTT colorimetric assay. Briefly, 100 µl of 5 × 10^5/ml cells was mixed and incubated with 100 µl of NSPD-12m at graded concentrations at 37°C for 3 days. Then, 50 µl of XTT solution (1 mg/ml) containing 0.02 µM of phenazinemethosulphate (PMS) was added to each well, and the cells were incubated at 37°C for another 4 h. The absorbance at 450 nm was measured with an ELISA reader. The 50% cytotoxicity concentrations (CC50) were calculated using the CalcuSyn software ([Chou and Talalay, 1984]).
A general note: Tetrazolium dyes change colour on reduction, which living cells bring about.

In the next series the test system is HIV-1 X4 virus. In words: Cell-cell HIV-1 X4 transmission, MT-2 to CEMx174 5.25 M7 cells. It counts as cell-based. The settings on record: Human immunodeficiency virus 1; infected MT-2 to CEMx174 5.25 M7 cells; luciferase. As for the experimental part: (§1) Inhibition of fusion between MT-2 cells infected by HIV-1 strains (X4 and R5 viruses) with CEMx174 5.25 M7 cells, which express CD4 and both coreceptors, CXCR4 and CCR5, was determined by a luciferase assay. Briefly, MT-2 cells were infected with the corresponding HIV-1 strains for 7 days. The infected MT-2 cells were washed three times and resuspended in culture medium to 2 × 10^5/ml. Then, 50 μl of a compound at graded concentrations in triplicate was incubated with equal volumes of HIV-1-infected MT-2 cells at 37°C for 30 min. Next, 100 μl of CEMx174 5.25 M7 cells (4 × 10^5/ml) was added, and the cells were incubated at 37°C for 3 days. The cells were collected, washed, and lysed with the lysing reagent included in the luciferase kit (Promega, Corp., Madison, Wis). Aliquots of cell lysates were transferred to 96-well flat-bottom luminometer plates (Costar), followed by the addition of luciferase substrate (Promega). Luciferase activity was measured using an Ultra 384 luminometer. ADS-J1 was used as a positive control for all cell–cell fusion assays.

The subject of a further series is HIV-1 IIIB. Description: Cell-cell HIV-1 IIIB transmission, MT-2 to CEMx174 5.25 M7 cells. The settings on record: Human immunodeficiency virus 1, IIIB; infected MT-2 to CEMx174 5.25 M7 cells; luciferase. The format is cell-based. How it is done:
as §1

The next series deals with T1, gp41 6-HB (N36/C34) (Human immunodeficiency virus type 1 group M subtype B, UniProt P04578).
T1 construct: purchased GL Biochem of China; host or cells: chemical solid-phase Fmoc synthesis
In words: N-PAGE for gp41 6-HB formation. It counts as biochemical, HIV-1. Particulars: 400, 200, 100, 50, and 25 μM incubated with N36 before C34; dose-dependent. As for the experimental part:
The inhibition of gp41 6-HB formation by NSPD-12m was further confirmed by N-PAGE as reported previously ([Liu et al., 2005]). Briefly, NSPD-12m at the indicated concentrations was incubated with the peptide N36 (100 μM in PBS) at 37°C for 30 min before the addition of the peptide C34 (100 μM in PBS). After incubation at 37°C for another 30 min, the mixture was diluted in Tris-glycine native sample buffer (Invitrogen, Carlsbad, CA) and then loaded onto 10 × 1.0-cm precast Tris-glycine gels (18%, Invitrogen) at 20 µl/well. Gel electrophoresis was carried out at constant voltage of 120 V at room temperature (RT) for 2 h in Tris-glycine native running buffer. Immediately after electrophoresis, the gel was stained by Coomassie blue (Invitrogen) and imaged by the FluorChem 8800 Imaging System (Alpha Innotech, San Leandro, CA). ADS-J1 (1 mM in PBS), a small-molecule HIV-1 entry inhibitor that blocks gp41 6-HB formation, was used as a positive control ([Wang et al., 2009]).

A further series deals with HIV-1 NL4-3(36G)V38A. Particulars: T20-resistant NL4-3(36G)V38A; p24 ELISA; mean ± SD. For orientation: ELISA stands for enzyme-linked immunosorbent assay.

T1 sequence (P04578 546-581): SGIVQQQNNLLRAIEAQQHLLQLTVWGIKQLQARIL

For the molecule `Cc1cc(/C=C2\SC(=S)N(Cc3ccccc3C(F)(F)F)C2=O)c(C)n1-c1ccc(O)c(C(=O)O)c1` [NSPD-12m], the EC50 in series [1] is 15.7 to 24.7 µM; in the series with HIV-1 X4 virus, 3.64 ± 0.34 µM; in the series with HIV-1 IIIB it was 1.99 ± 0.08 µM. Besides, the CC50 at 3 days in the series “XTT assay, TZM-bl cells” was 79 ± 11.4 µM. For the same molecule, in “XTT assay, TZM-bl cells”, the CC90 at 3 days amounted to 118 ± 18 µM. On gp41 6-HB (N36/C34), the “intensity of the 6-HB band (upper position) in N-PAGE” value was “decreased”. For the same molecule, the IC50 in the series with HIV-1 NL4-3(36G)V38A was 23.7 ± 5.15 µM. In the series on HIV-1 NL4-3(36G)V38A, this molecule gave an IC90 of 32.5 ± 5.42 µM.
